In US20230091225A1, “Bifunctional chimeric heterocyclic compounds for targeted degradation of androgen receptors and use thereof” (HINOVA PHARMACEUTICALS INC., priority 2019, published 2023):
Read-outs that look alike come from different tables or passages of the source.

Assays:
LNCaP/AR cells = assay: Inhibition of proliferation of LNCaP/AR prostate cancer cells (CCK-8); format: cell-based
androgen receptor (AR) = target: T1, androgen receptor (AR) (Homo sapiens, UniProt P10275); assay: Degradation of androgen receptor (AR) protein in VCaP cells by ELISA; format: cell-based; settings: for inhibition at 0.1 µM: read-out: % degradation
T1 sequence (P10275 1-920): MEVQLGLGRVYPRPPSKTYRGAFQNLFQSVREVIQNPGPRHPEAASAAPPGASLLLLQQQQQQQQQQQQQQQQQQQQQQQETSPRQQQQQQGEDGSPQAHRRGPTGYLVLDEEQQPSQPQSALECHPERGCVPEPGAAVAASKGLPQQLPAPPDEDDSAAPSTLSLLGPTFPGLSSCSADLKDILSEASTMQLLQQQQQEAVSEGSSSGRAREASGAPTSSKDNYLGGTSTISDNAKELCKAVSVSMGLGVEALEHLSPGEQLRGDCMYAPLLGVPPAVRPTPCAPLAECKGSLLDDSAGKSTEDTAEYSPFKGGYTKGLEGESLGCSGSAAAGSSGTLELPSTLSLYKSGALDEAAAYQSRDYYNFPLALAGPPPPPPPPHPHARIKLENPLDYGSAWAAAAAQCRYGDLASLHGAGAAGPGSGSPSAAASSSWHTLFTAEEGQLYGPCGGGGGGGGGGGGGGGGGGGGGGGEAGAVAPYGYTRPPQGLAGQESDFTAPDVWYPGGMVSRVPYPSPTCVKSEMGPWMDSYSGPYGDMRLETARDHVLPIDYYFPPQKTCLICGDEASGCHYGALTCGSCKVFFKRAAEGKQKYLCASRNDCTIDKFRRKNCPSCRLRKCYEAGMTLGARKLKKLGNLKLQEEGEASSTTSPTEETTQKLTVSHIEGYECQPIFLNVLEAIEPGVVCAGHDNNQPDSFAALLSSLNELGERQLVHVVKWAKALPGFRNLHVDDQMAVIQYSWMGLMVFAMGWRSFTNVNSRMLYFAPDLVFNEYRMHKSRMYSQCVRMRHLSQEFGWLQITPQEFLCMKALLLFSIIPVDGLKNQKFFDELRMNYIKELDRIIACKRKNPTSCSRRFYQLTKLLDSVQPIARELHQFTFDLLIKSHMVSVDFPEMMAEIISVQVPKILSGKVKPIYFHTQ

[1] = 144 h, proliferation of LNCap/AR cells, 6 days, CCK-8, read-out: IC50
[2] = percentage of degraded AR at 100 nM, VCaP cells, 16 h, ELISA
[3] = proliferation of LNCap/AR cells, 6 days, CCK-8, read-out: IC50

Row | IC50 (LNCaP/AR cells; [1]) [µM] | inhibition at 0.1 µM (androgen receptor (AR); [2]) [%] | Compound | other results
1 | 0.1 to 0.5 | 50 to 79 | CC1(C)[C@H](Oc2ccc(C#N)c(Cl)c2)C(C)(C)[C@H]1N1Cc2cc(C#CC3CCN(C4CCN(c5cc6c(cc5F)C(=O)N(C5CCC(=O)NC5=O)C6=O)CC4)CC3)ccc2C1=O (stereo partly drawn) [Compound 51] | –
2 | < 0.1 | > 80 | Cc1ncsc1-c1ccc([C@H](CO)NC(=O)[C@@H]2C[C@@H](O)CN2C(=O)[C@@H](NC(=O)COCCCCC#Cc2ccc3c(c2)CN([C@H]2C(C)(C)[C@H](Oc4ccc(C#N)c(Cl)c4)C2(C)C)C3=O)C(C)(C)C)cc1 [Compound 48, (2S,4R)-1-((S)-2-(2-((6-(2-(((1r,3r)-3-(3-chloro-4-cyanophenoxy))-2,2,4,4-tetramethylcyclobutyl)-1-oxoisoindolin-5-yl)hex-5-yn-1-yl)oxy)acetamido)-3,3-dimethylbutyryl)-4-hydroxy-N-((R)-2-hydroxy-1-(4-(4-methylthiazol-5-yl)phenyl)ethyl)pyrrolidine-2-carboxamide] | –
3 | < 0.1 | 50 to 79 | [2H]C([2H])([2H])N(C(=O)c1ccc(C#CCCCCCOCC(=O)N[C@H](C(=O)N2C[C@H](O)C[C@H]2C(=O)N[C@@H](C)c2ccc(-c3scnc3C)cc2)C(C)(C)C)cc1)[C@H]1C(C)(C)[C@H](Oc2ccc(C#N)c(Cl)c2)C1(C)C [Compound 24] | –
4 | 0.1 to 0.5 | 50 to 79 | CC1(C)[C@H](Oc2ccc(C#N)c(Cl)c2)C(C)(C)[C@H]1N1Cc2nc(N3CCC(CN4CCN(c5cc6c(cc5F)C(=O)N(C5CCC(=O)NC5=O)C6=O)CC4)CC3)ccc2C1=O (stereo partly drawn) [Compound 198] | –
5 | < 0.1 | 50 to 79 | N#Cc1ccc(O[C@H]2CC[C@H](N3Cc4nc(N5CCC(CN6CCN(c7cc8c(cc7F)C(=O)N(C7CCC(=O)NC7=O)C8)CC6)CC5)ccc4C3=O)CC2)cc1Cl (stereo partly drawn) [Compound 204] | –
6 | < 0.1 | 50 to 79 | Cc1ncsc1-c1ccc([C@H](C)NC(=O)[C@@H]2C[C@@H](O)CN2C(=O)[C@@H](NC(=O)COC2CN(CCC#Cc3ccc4c(c3)CN([C@H]3C(C)(C)[C@H](Oc5ccc(C#N)c(Cl)c5)C3(C)C)C4=O)C2)C(C)(C)C)cc1 [Compound 32, (2s,4r)-1-((s)-2-(2-((1-(4-(2-((1r,3r)-3-(3-chloro-4-cyanophenoxy)-2,2,4,4-tetramethylcyclobutyl)-1-oxoheteroin-5-yl)-3-butyne-1-yl)azetidine-3-yl)oxy)acetamido)-3,3-dimethylbutyryl)-4-hydroxy-N-((S)-1-(4-(4-methylthiazol-5-yl)phenyl)ethyl)pyrrolidine-2-carboxamide] | –
7 | < 0.1 | 50 to 79 | Cc1ncsc1-c1ccc([C@H](C)NC(=O)[C@@H]2C[C@@H](O)CN2C(=O)[C@@H](NC(=O)COCCCCCNc2ccc3c(c2)C(=O)N([C@H]2C(C)(C)[C@H](Oc4ccc(C#N)c(Cl)c4)C2(C)C)C3)C(C)(C)C)cc1 [Compound 7, (2S,4R)-1-((S)-2-(2-((5-((2-((1R,3R)-3-(3-chloro-4-cyanophenoxy)-2,2,4,4-tetramethylcyclobutyl)-3-oxoisoindolin-5-yl)amino)pentyl)oxy)acetylamino)-3,3-dimethylbutyryl)-4-hydroxy-N-((S)-1-(4-(4-methylthiazol-5-yl)phenyl)ethyl) pyrrolidine-2-carboxamide] | –
8 | < 0.1 | 50 to 79 | Cc1ncsc1-c1ccc([C@H](C)NC(=O)[C@@H]2C[C@@H](O)CN2C(=O)[C@@H](NC(=O)CN2CC(CC#Cc3ccc4c(c3)CN([C@H]3C(C)(C)[C@H](Oc5ccc(C#N)c(Cl)c5)C3(C)C)C4=O)C2)C(C)(C)C)cc1 [Compound 43] | –
9 | < 0.1 | 50 to 79 | Cc1ncsc1-c1ccc([C@H](C)NC(=O)[C@@H]2C[C@@H](O)CN2C(=O)[C@@H](NC(=O)CCn2cc(C#Cc3ccc4c(c3)CN([C@H]3C(C)(C)[C@H](Oc5ccc(C#N)c(Cl)c5)C3(C)C)C4=O)cn2)C(C)(C)C)cc1 [Compound 42] | –

The next lines start with the compound.

Row | Compound | IC50 (LNCaP/AR cells; [1]) [µM] | inhibition at 0.1 µM (androgen receptor (AR); [2]) [%] | other results
10 | [2H]C([2H])([2H])N(C(=O)c1ccc(C#CCCCCOCC(=O)N[C@H](C(=O)N2C[C@H](O)C[C@H]2C(=O)N[C@@H](C)c2ccc(-c3scnc3C)cc2)C(C)(C)C)nc1)[C@H]1C(C)(C)[C@H](Oc2ccc(C#N)c(Cl)c2)C1(C)C [Compound 33] | 0.1 to 0.5 | 0 | –
11 | CC(=O)O[C@@H]1C[C@@H](C(=O)N[C@@H](C)c2ccc(-c3scnc3C)cc2)N(C(=O)[C@@H](NC(=O)Cn2cc(C#Cc3ccc4c(c3)CN([C@H]3C(C)(C)[C@H](Oc5ccc(C#N)c(Cl)c5)C3(C)C)C4=O)cn2)C(C)(C)C)C1 [Compound 10, (3R,5S)-1-((S)-2-(2-(4-((2-((1r,3r)-3-(3-chloro-4-cyanophenoxy)-2,2,4,4-tetramethylcyclobutyl)-1-oxoisoindolin-5-ylethynyl)-1H-pyrazol-1-yl)acetylamino)-3,3-dimethylbutyryl)-5-((((S)-1-(4-(4-methylthiazol-5-yl)phenyl)ethylcarbamoyl)pyrrolidin-3-yl acetate] | – | – | IC50 (LNCaP/AR cells; [3]): 0.1 to 0.5 µM; % degradation (androgen receptor (AR)): C (key: A: >80%; B: 79%-50%; C: 49%-25%; D: <25%)
12 | Cc1ncsc1-c1ccc([C@H](C)NC(=O)[C@H]2C[C@@H](O)CN2C(=O)[C@@H](NC(=O)COCCCCC#Cc2cc3c(cn2)C(=O)N(C2C(C)(C)C(Oc4ccc(C#N)c(Cl)c4)C2(C)C)C3)C(C)(C)C)cc1 (stereo partly drawn) [Compound 38] | – | – | IC50 (LNCaP/AR cells; [3]): < 0.1 µM; % degradation (androgen receptor (AR)): B (key: A: >80%; B: 79%-50%; C: 49%-25%; D: <25%)
13 | CC(=O)O[C@@H]1C[C@H](C(=O)N[C@H](C)c2ccc(-c3scnc3C)cc2)N(C(=O)[C@H](NC(=O)COCCCCCNc2ccc(C(=O)NC3C[C@]4(C)O[C@@]3(C)[C@@H]3C(=O)N(c5ccc(C#N)c(Cl)c5)C(=O)[C@@H]34)c(F)c2)C(C)(C)C)C1 (stereo partly drawn) [Compound 19, (3S,5R)-1-((2R)-2-(2-((5-((4-(((3aS,4S,7S,7aR)-2-(3-chloro-4-benzonitrile)4,7-dimethyl-1,3-dioxooctahydro-1H-4,7-epoxyisoindolin-5-yl)carbamoyl)-3-fluorophenyl)amino)pentyl)oxy)acetylamino)-3,3-dimethylbutyryl)-5-(((R)-1-(4-(4-methylthiazol-5-yl)phenyl)ethyl)carbamoyl)pyrrolidin-3-yl acetate] | – | – | IC50 (LNCaP/AR cells; LNCaP/AR, 144 h): < 0.1 µM; inhibition at 0.1 µM (androgen receptor (AR); VCaP, 16 h): < 25%
14 | (2S,4R)-1-((S)-2-(2-(4-(3-(2((1s,3s)-3-(3-chloro-4-cyanophenoxy)-2,2,4,4-tetramethylcyclobutyl)-1-oxoisoindolin-5-yl)prop-2-yn-1-yl)piperidin-1-yl)acetylamino)-3,3-dimethylbutyryl)-4-hydroxy-N-((S)-1-(4-(4-methylthiazol-5-yl)phenyl)ethyl)pyrrolidine-2-carboxamide [Compound 39] | – | – | IC50 (LNCaP/AR cells; [3]): < 0.1 µM; % degradation (androgen receptor (AR)): C (key: A: >80%; B: 79%-50%; C: 49%-25%; D: <25%)
15 | Cc1ncsc1-c1ccc([C@H](C)NC(=O)[C@@H]2C[C@@H](O)CN2C(=O)[C@@H](NC(=O)Cn2cc(C#Cc3ccc4c(c3)CN(C3C(C)(C)C(Oc5ccc(C#N)c(Cl)c5)C3(C)C)C4=O)cn2)C(C)(C)C)cc1 (stereo partly drawn) [Compound 11] | – | – | IC50 (LNCaP/AR cells; [3]): < 0.1 µM; % degradation (androgen receptor (AR); [2]): B (79%-50%)
16 | CC(C#Cc1ccc2c(c1)CN(C1C(C)(C)C(Oc3ccc(C#N)c(Cl)c3)C1(C)C)C2=O)N1CCN(c2cc3c(cc2F)C(=O)N(C2CCC(=O)NC2=O)C3=O)CC1 (stereo not drawn) [Compound 199, 2-chloro-4-((1r,3r)-3-(5-(4-(2,6-dioxopiperidin-3-yl)-6-fluoro-1,3-dioxoisoindolin-5-yl)piperazin-1-yl)but-1-yn-1-yl)-1-oxoisoindolin-2-yl)-2,4,4-tetramethylcyclobutoxy)benzonitrile] | – | – | IC50 (LNCaP/AR cells; [3]): > 1 µM; % degradation (androgen receptor (AR); [2]): D (<25%)
17 | Cc1ncsc1-c1ccc([C@H](C)NC(=O)[C@@H]2C[C@@H](O)CN2C(=O)[C@@H](NC(=O)CN2CCC(CN3CCN(c4ccc(C(=O)NC5CC6(C)OC5(C)[C@@H]5C(=O)N(c7ccc(C#N)c(Cl)c7)C(=O)[C@@H]56)cn4)CC3)CC2)C(C)(C)C)cc1 (stereo partly drawn) [Compound 18, N-((3aR,4R,7R,7aS)-2-(3-chloro-4-benzonitrile)-4,7-dimethyl-1,3dioxooctahydro-1H-4,7-epoxyisoindolin-5-yl)-6-(4-((1-(2-(((S)-1-((2S,4R)-4-hydroxy-2-(((S)-1-(4-(4-methylthiazol-5-yl)phenyl)ethyl)carbamoyl)pyrrolidin-1-yl)-3,3-dimethyl-1-oxobutan-2-yl)amino)-2-oxoethyl)piperidine-4-yl)methyl)piperazin-1-yl)nicotinamide] | – | – | IC50 (LNCaP/AR cells; LNCaP/AR, 144 h): < 0.1 µM; inhibition at 0.1 µM (androgen receptor (AR); VCaP, 16 h): > 80%
18 | N#Cc1ccc(O[C@H]2CC[C@H](N3Cc4nc(N5CCC(CN6CCN(c7cc8c(cc7F)C(=O)N(C7CCC(=O)NC7=O)C8=O)CC6)CC5)ccc4C3=O)CC2)cc1Cl (stereo partly drawn) [Compound 200] | > 1 | – | inhibition at 0.1 µM (androgen receptor (AR); VCaP, 16 h): 50 to 79%
